According to patent US20110059909A1, “METHODS FOR TREATING INFLAMMATORY DISORDERS” (priority 2004, published 2011):

Assays:
NF-κB = test: κB-repeat luciferase reporter gene assay; assay type: cell-based, rat
Protocol: Dominant negative and constitutively active ras expression vector (pCMVrasN17 and pCMVrasv12) and κB repeat luciferase reporter construct (pNF-κB-Luc) were purchased from BD Biosciences. 3×10^5 cells/well were cultured in 6-well plates for one day before the transfection. Transfection was performed with plasmid concentration constant (2.5 μg/transfection) and 8 μl of Fugene transfection reagent (Roche Molecular Biochemicals). 24 h after transfection, the cells were placed in serum free media for overnight. Following appropriate treatment, the cells were washed with phosphate buffered saline (PBS), scraped, and then resuspended with 100 μl of lysis buffer (40 mM of Tricine pH 7.8, 50 mM of NaCl, 2 mM of EDTA, 1 mM of MgSO4, 5 mM of dithiothreitol, and 1% of Triton X-100). After incubation at room temperature for 15 min with occasional vortexing, the samples were centrifuged. The luciferase and β-galactosidase activities were measured by using luciferase assay kit (Stratagene, CA) and β-gal assay kit (Invitrogen, CA) respectively. The emitted light and optical absorbance was measured using Spectra Max/Gemini XG (Molecular Device, CA) and SpectraMax 190 (Molecular Device).

LacCer synthase (GalT-2) = biological target: T1, LacCer synthase (GalT-2) (Rattus norvegicus, UniProt O88419); test: Measurement of [14C]LacCer synthesis in primary astrocytes (HPTLC); assay type: cell-based
T1 construct: using cell lysates derived from cells stimulated with LPS/IFNγ; endogenous in cells; host or cells: rat primary astrocytes
T1 sequence (O88419 1-382): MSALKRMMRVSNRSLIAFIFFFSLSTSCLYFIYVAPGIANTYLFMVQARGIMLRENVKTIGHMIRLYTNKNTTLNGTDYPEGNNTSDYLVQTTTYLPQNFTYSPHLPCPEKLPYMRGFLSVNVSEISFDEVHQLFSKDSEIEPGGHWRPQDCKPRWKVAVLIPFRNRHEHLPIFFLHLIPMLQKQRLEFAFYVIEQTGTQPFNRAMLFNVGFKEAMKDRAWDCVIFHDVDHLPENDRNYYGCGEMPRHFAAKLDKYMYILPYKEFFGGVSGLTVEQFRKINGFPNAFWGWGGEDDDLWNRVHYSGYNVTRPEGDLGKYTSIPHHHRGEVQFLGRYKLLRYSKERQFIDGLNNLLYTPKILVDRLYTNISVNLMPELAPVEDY
Protocol: Cultured cells were incubated in growth medium containing [^14C]galactose (5 μCi/ml) for 24 h as described previously. The medium was removed, and the cell monolayer was washed with sterile PBS. After the stimulation with LPS/IFNγ (1 μg/ml; 10 U/ml) for various durations, cells were then harvested and washed with ice cold PBS and lysed by sonication. 200 μg of protein was used for extraction of lipids using Chloroform:Methanol:HCl (100:100:1). The organic phase was dried under nitrogen. Glycosphingolipids were resolved by high performance thin layer chromatography using chloroform/methanol/0.25% KCl (70:30:4, v/v/v) as the developing solvent. The gel area corresponding to LacCer was scraped, and radioactivity was measured employing “liquiscint” (NEN Life Science Products) as a scintillating fluid.

IL-1β = IL-1β mRNA in LPS/IFNγ-stimulated primary astrocytes; assay type: cell-based, rat
Protocol: (§1) A 20-mer antisense oligonucleotide of the following sequence (5′-CGCTTGAGCGCAGACATCTT-3′, SEQ ID NO:1) targeted against rat lactosylceramide synthase (GalT-2) were synthesized by Integrated DNA Technology. A scrambled oligonucleotide (5′-CTGATATCGTCGATATCGAT-3′, SEQ ID NO:2) was also synthesized and used as control. Cells were counted and plated a day before transfection and the following day were treated with Oligofectamine (Invitrogen)-oligonucleotide complexes (200 nM oligo) under serum free conditions. 48 h following transfection, the protein levels of GalT-2 were analyzed using polyclonal antibodies raised against rat GalT-2 (Abjent Inc., CA). The transfected cells were stimulated with LPS/IFNγ (1 μg/ml) and levels of nitric oxide were checked 24 h following stimulation. iNOS mRNA and protein levels were checked at 6 h and 24 h, respectively, following stimulation of transfected cells.
(§2) 5 μg total RNA was treated with 2 U DNAse I (bovine pancreas, Sigma) for 15 min at room temperature in 18 μl volume containing 1×PCR buffer and 2 mM MgCl2. It was then inactivated by incubation with 2 μl of 25 mM EDTA at 65° C. for 15 min. 2 μl of random primers were added and annealed to the RNA according to the manufacturer's protocol. cDNA was synthesized in a 50 μl reaction containing 5 μg of total RNA and 50-100 U reverse transcriptase by incubating the tubes at 42° C. for 60 min. […]

TNFα = TNFα mRNA in LPS/IFNγ-stimulated primary astrocytes; assay type: cell-based, rat
Protocol: as §1, §2

[1] = LPS/IFNγ-stimulated astrocytes, 48 h after transfection

Molecule	LPS/IFNγ-induced κB-luciferase activity (NF-κB; PDMP 0.5 h before LPS/IFNγ)	[14C]LacCer biosynthesis following LPS/IFNγ-stimulation (LacCer synthase (GalT-2))	[14C]LacCer synthesis upon TNFα-stimulation (LacCer synthase (GalT-2); TNFα 1 ng/ml)	IL-1β mRNA expression (IL-1β; [1])	TNFα mRNA expression (TNFα; [1])	Reversal of PDMP effect on κB-luciferase activity (NF-κB; exogenous LacCer)	Reversal of AS-mediated inhibition of IL-1β expression (IL-1β; exogenous LacCer, LPS/IFNγ)	Reversal of AS-mediated inhibition of TNFα expression (TNFα; exogenous LacCer, LPS/IFNγ)
CCCCCCCCCC(=O)NC(CN1CCOCC1)C(O)c1ccccc1.Cl [PDMP, D-threo-1-Phenyl-2-decanoylamino-3-morpholino-1-propanol.HCl]	abolished	inhibited this increase						
AS GalT-2 oligonucleotides: 20-mer antisense oligonucleotide 5′-CGCTTGAGCGCAGACATCTT-3′, SEQ ID NO:1, against rat lactosylceramide synthase (GalT-2) (antisense CGCTTGAGCGCAGACATCTT; chemistry not given here)		diminished synthesis	diminished synthesis	suppressed	suppressed			
Lactosylceramide [LacCer]						effectively bypassed	reversed	reversed
